From PubChem BioAssay AID248 (DTP/NCI, 2004)
“And” between values parts separate entries of the source, which are not always exact repeats. Identical values can stand only once. Toxic doses and inconclusive results are not listed. Cut-off read from the data, not from the text of the source: active = T/C of 150% or more; inactive = T/C below 125%.

Test system: L1210 leukemia ip in BDF1 mice, survival T/C
Assay: NCI In Vivo Anticancer Drug Screen. Data for tumor model L1210 Leukemia (intraperitoneal) in B6D2F1 (BDF1) mice
Conditions: endpoint: mean survival time, higher = longer survival
Procedure, shortened: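 Read-out is survival time, reported as the treated-group measurement over the vehicle-control measurement.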

[1] = dose: 6.25 mg/kg/injection, schedule: Q01DX009 (ip), vehicle: saline
[2] = dose: 12.5 mg/kg/injection, schedule: Q01DX009 (ip), vehicle: saline
[3] = dose: 100.0 mg/kg/injection, schedule: Q04DX003 (ip), vehicle: saline with Tween-80
[4] = dose: 200.0 mg/kg/injection, schedule: Q04DX003 (ip), vehicle: saline with Tween-80
[5] = dose: 400.0 mg/kg/injection, schedule: Q04DX003 (ip), vehicle: saline with Tween-80
[6] = dose: 100.0 mg/kg/injection, schedule: Q01DX009 (ip), vehicle: Klucel (hydroxypropylcellulose) (HPC)
[7] = dose: 200.0 mg/kg/injection, schedule: Q01DX009 (ip), vehicle: Klucel (hydroxypropylcellulose) (HPC)
[8] = dose: 100.0 mg/kg/injection, schedule: Q01DX001 (ip), vehicle: saline
[9] = dose: 200.0 mg/kg/injection, schedule: Q01DX001 (ip), vehicle: saline
[10] = dose: 400.0 mg/kg/injection, schedule: Q01DX001 (ip), vehicle: saline
[11] = dose: 400.0 mg/kg/injection, schedule: Q01DX009 (ip), vehicle: Klucel (hydroxypropylcellulose) (HPC)
[12] = dose: 100.0 mg/kg/injection, schedule: Q04DX002 (ip), vehicle: Klucel (hydroxypropylcellulose) (HPC)
[13] = dose: 200.0 mg/kg/injection, schedule: Q04DX002 (ip), vehicle: Klucel (hydroxypropylcellulose) (HPC)
[14] = dose: 400.0 mg/kg/injection, schedule: Q04DX002 (ip), vehicle: Klucel (hydroxypropylcellulose) (HPC)
[15] = dose: 100.0 mg/kg/injection, schedule: Q01DX009 (ip), vehicle: saline with Tween-80
[16] = dose: 200.0 mg/kg/injection, schedule: Q01DX009 (ip), vehicle: saline with Tween-80
[17] = dose: 100.0 mg/kg/injection, schedule: Q04DX003 (ip), vehicle: Klucel (hydroxypropylcellulose) (HPC)
[18] = dose: 200.0 mg/kg/injection, schedule: Q04DX003 (ip), vehicle: Klucel (hydroxypropylcellulose) (HPC)
[19] = dose: 400.0 mg/kg/injection, schedule: Q04DX003 (ip), vehicle: Klucel (hydroxypropylcellulose) (HPC)

Measured: T/C

SC1(S)CN2CCC1CC2
inactive: [1] 96 % of control | dose: 6.25 mg/kg/injection, schedule: Q04DX003 (ip), vehicle: saline 105 % of control | [2] 94 % of control | dose: 12.5 mg/kg/injection, schedule: Q04DX003 (ip), vehicle: saline 91 % of control | dose: 25.0 mg/kg/injection, schedule: Q04DX003 (ip), vehicle: saline 93 % of control

CC(=O)Nc1nc(Cl)c([N+](=O)[O-])c(Cl)n1
inactive: dose: 3.12 mg/kg/injection, schedule: Q04DX002 (ip), vehicle: Klucel (hydroxypropylcellulose) (HPC) 103 % of control | dose: 6.25 mg/kg/injection, schedule: Q04DX002 (ip), vehicle: Klucel (hydroxypropylcellulose) (HPC) 100 % of control | dose: 12.5 mg/kg/injection, schedule: Q01DX001 (ip), vehicle: Klucel (hydroxypropylcellulose) (HPC) 92 % of control | dose: 12.5 mg/kg/injection, schedule: Q04DX002 (ip), vehicle: Klucel (hydroxypropylcellulose) (HPC) 103 % of control

O=C1c2ccccc2C(=O)N1Cc1ccccc1
inactive: [3] 92 % of control | [4] 100 % of control | [5] 96 % of control

COc1ccc([PH+](c2ccc(OC)cc2)c2ccc(OC)cc2)cc1.COc1ccc([PH+](c2ccc(OC)cc2)c2ccc(OC)cc2)cc1.[Cl][Hg][Cl]
inactive: dose: 50.0 mg/kg/injection, schedule: Q01DX009 (ip), vehicle: Klucel (hydroxypropylcellulose) (HPC) 108 % of control | [6] 101 % of control | [7] 93 % of control

C/C(=N/OC(=O)N(C)C)c1ccc([N+](=O)[O-])cc1
inactive: [8] 104 % of control | [9] 104 % of control | [10] 104 % of control

CCOC(=O)C(C(=O)OCC)C(=O)c1cccc2ccc3ccccc3c12
inactive: [3] 96 % of control | [4] 96 % of control | [5] 97 % of control

CC(C)(C)NO
inactive: dose: 100.0 mg/kg/injection, schedule: Q01DX001 (ip), vehicle: Klucel (hydroxypropylcellulose) (HPC) 113 % of control | [6] 108 % of control | dose: 200.0 mg/kg/injection, schedule: Q01DX001 (ip), vehicle: Klucel (hydroxypropylcellulose) (HPC) 101 % of control | [7] 103 % of control | dose: 400.0 mg/kg/injection, schedule: Q01DX001 (ip), vehicle: Klucel (hydroxypropylcellulose) (HPC) 98 % of control | [11] 101 % of control

CCOC(=O)S(=O)(=O)c1ccc(C)cc1
inactive: dose: 100.0 mg/kg/injection, schedule: Q04DX003 (ip), vehicle: acetone 106 % of control | dose: 200.0 mg/kg/injection, schedule: Q04DX003 (ip), vehicle: acetone 96 % of control | dose: 400.0 mg/kg/injection, schedule: Q04DX003 (ip), vehicle: acetone 101 % of control

O=C(O)CCC(=O)c1ccc2c3c1CCCC3CC2 (stereo not drawn)
inactive: [12] 107 % of control | [13] 101 % of control | [14] 93 % of control

O=[N+]([O-])c1cc(Cl)ccc1O
inactive: [3] 91 % of control | [4] 107 % of control | [5] 96 % of control

CCNC(C)(C)C(SSSC(c1ccc(C(F)(F)F)cc1)C(C)(C)NCC)c1ccc(C(F)(F)F)cc1 (stereo not drawn)
inactive: [1] 91 % of control | [2] 96 % of control | dose: 25.0 mg/kg/injection, schedule: Q01DX009 (ip), vehicle: saline 95 % of control

OC1C2CC3CC(C2)CC1C3 (stereo not drawn)
inactive: [12] 102 % of control | [13] 98 % of control | [14] 94 % of control

Cc1cccc(C(=O)O)c1CC1NCCC2c3ccccc3NC12 (stereo not drawn)
inactive: dose: 75.0 mg/kg/injection, schedule: Q01DX001 (ip), vehicle: saline 98 % of control | dose: 150.0 mg/kg/injection, schedule: Q01DX001 (ip), vehicle: saline 100 % of control

Cc1cccc(C)c1NC(=S)N1CCC(CCCC2CCN(C(=S)Nc3c(C)cccc3C)CC2)CC1
inactive: [15] 93 % of control and 98 % of control | [16] 95 % of control and 105 % of control | dose: 400.0 mg/kg/injection, schedule: Q01DX009 (ip), vehicle: saline with Tween-80 93 % of control and 98 % of control

NC(=O)Nc1ccc(Cl)cc1
inactive: [15] 101 % of control | [17] 99 % of control | [16] 96 % of control | [18] 91 % of control | [19] 102 % of control

CC(C)(C)C1COP(=O)(Oc2ccccc2)OC1 (stereo not drawn)
inactive: dose: 100.0 mg/kg/injection, schedule: Q01DX001 (ip), vehicle: carboxymethylcellulose (CMC) 91 % of control | dose: 200.0 mg/kg/injection, schedule: Q01DX001 (ip), vehicle: carboxymethylcellulose (CMC) 94 % of control

O=S(=O)(O)c1ccc(-c2nc3ccccc3[nH]2)cc1
inactive: dose: 50.0 mg/kg/injection, schedule: Q01DX001 (ip), vehicle: saline 104 % of control | [8] 98 % of control | [6] 101 % of control | [17] 95 % of control | [9] 93 % of control | [7] 96 % of control | [18] 103 % of control | [10] 95 % of control | [11] 96 % of control | [19] 98 % of control

CCC(CC)(Cc1ccccc1)C(=O)NC(=O)NO
inactive: dose: 25.0 mg/kg/injection, schedule: Q01DX Z (ip), vehicle: methylcellulose (MC) 98 % of control | dose: 50.0 mg/kg/injection, schedule: Q01DX Z (ip), vehicle: methylcellulose (MC) 101 % of control | dose: 100.0 mg/kg/injection, schedule: Q01DX Z (ip), vehicle: methylcellulose (MC) 98 % of control

COc1cc(Cl)ccc1NC(=O)Oc1cccc(NC(C)=O)c1
inactive: [6] 100 % of control | [7] 89 % of control | [11] 100 % of control

N#CCCCCCCN=[N+]=[N-]
inactive: dose: 37.5 mg/kg/injection, schedule: Q04DX003 (ip), vehicle: saline 106 % of control | dose: 75.0 mg/kg/injection, schedule: Q04DX003 (ip), vehicle: saline 101 % of control | dose: 150.0 mg/kg/injection, schedule: Q04DX003 (ip), vehicle: saline 102 % of control

Cc1cc(C(C)(C)C)cc(C)c1O
inactive: [6] 97 % of control | [17] 95 % of control | [7] 100 % of control | [18] 95 % of control | [11] 97 % of control | [19] 95 % of control

COc1ccc(/C=N/NC(=O)CNC(=O)c2ccc(Cl)cc2Cl)cc1OC
inactive: dose: 50.0 mg/kg/injection, schedule: Q01DX009 (ip), vehicle: saline with Tween-80 91 % of control | [15] 86 % of control | [16] 86 % of control

CP1(=O)CCC=C1C(=O)O (stereo not drawn)
inactive: [8] 95 % of control | [9] 95 % of control | [10] 95 % of control

Cc1c2cnccc2c(C)c2c1c1ccccc1n2CCCC#N
inactive: [17] 105 % of control | [18] 102 % of control | [19] 109 % of control
